Data on two molecules can be found in US20220184147A1, “BACTERIAL ENZYMATIC CONVERSION OF ANTHRACYCLINE CHEMOTHERAPEUTICS TO REDUCE TOXICITY AND PROMOTE DIVERSITY AMONG THE INTESTINAL MICROBIOTA” (Northwestem University, priority 2019, published 2022).

Data set [1] concerns K. pneumoniae. In words: Modified resting cell assay with gentamicin. In kind it is cell-based, Klebsiella pneumoniae. To be noted: 10 or 50 μm gentamicin, anaerobic, 37° C., 24 h, controls. The protocol: FIG. 12A and FIG. 12B. Background gentamicin in culture media “fixes” K. pneumoniae to retain its biotransformation function despite thwarting cell growth. FIG. 12A: K. pneumoniae were first grown anaerobically at 37° C. in media in the presence of doxorubicin for 24 h (i.e., so initial biotransformation took place). Cultures were centrifugated into pellets, which were washed with buffer solution and resuspended in new media containing 100 μm doxorubicin and 0, 10, or 50 μm gentamicin. Inoculum was transferred to positive controls (i.e., with doxorubicin and same gentamicin treatment) and negative controls (i.e., contained doxorubicin, but no gentamicin). All samples were incubated anaerobically at 37° C. for 24 h and bacterial growth and final doxorubicin concentration (i.e., barplot) were determined. […] The two tubes on the far right are control growth media and doxorubicin-containing growth media (i.e., red color intensity corresponds to doxorubicin concentration in solution).
In a modified resting cell assay, we have shown that the biotransformation function can be harnessed without dependency on cell division. (See FIGS. 12A and 12B). Thus, it may be possible to “fix” K. pneumoniae in a form that enzymatically transforms Dox without presenting risk for in vivo colonization/growth. […]

The subject of data set [2] is C. innocuum. In words: Growth of Dox-sensitive strain in 50% spent media of resistant strains. In kind it is cell-based, Clostridium innocuum. The protocol:
(§1) We previously observed that a Dox concentration as low as 10 μM can inhibit the growth of C. innocuum and Lactobacillus. (See FIGS. 7 and 8, respectively).

Data set [3] has as its system mixed-microbial communities of C. innocuum, Lactobacillus sp., E. faecalis, E. coli, and K. pneumoniae. Kind of data set: Mixed-microbial communities C1-C5 in continuous anaerobic batch culture exposed to Dox in generation 2. It counts as cell-based. The protocol: FIG. 11A, FIG. 11B, FIG. 11C, FIG. 11D, and FIG. 11E. […] C1 began with even content of model strains of C innocuum^S, Lactobacillus^S sp., E. faecalisR, E. coli^R*, and K. pneumoniae^R*. C2 included less E. faecalis^R. C3 included less E. coli^R* . C4 included less K. pneumoniae^R*, and C5 included less E. coli^R* and K. pneumoniae^R*. The bacterial communities were grown in continuous batch culture and exposed to different concentrations Dox in generation 2.
The impacts of doxorubicin concentration and microbial community membership (and associated function) on the reduction of bioactive drug and associated microbial community resiliency were investigated in vitro in continuous anaerobic batch culture. Optical density measurements coupled with 16S rRNA gene amplicon sequencing analysis were used to estimate relative bacterial growth and a spectrophotometric assay was used to measure doxorubicin concentration. […] C1 began with even content of model strains of C. innocuum^S, Lactobacillus^S sp., E. faecalis^R, E. coli^R*, and K. pneumoniae^R*. C2 included less E. faecalis^R. C3 included less E. coli^R*. C4 included less K. pneumoniae^R*, and C5 included less E. coli^R* and K. pneumoniae^R*. The bacterial communities were grown in continuous batch culture and exposed to different concentrations Dox in generation 2.
C1, C2, and C3, may have been enhanced in communities with greater bacterial diversity. (See FIGS. 11A, 11B, and 11C, and compare C1 to C2 and C3, at least for the medium concentration). […] (See FIG. 11D, C4). […] (See FIG. 11E, C5). […] (See FIGS. 11A, 11B, and 11C, C1, C2, and C3, generation 3). […] Thus, microbial community membership (and associated function) impacted the rate of doxorubicin transformation, which, in turn, may confer protective effects on drug-sensitive members in gut-microbial communities.

The test system of data set [4] is Escherichia coli. In words: Sensitivity or resistance of monoculture growth to Dox. The settings on record: E. coli. In kind it is cell-based. An excerpt: (§2) The impacts of doxorubicin on a model community of gut bacteria was investigated in vitro in anaerobic batch culture. The synthetic community was composed of specific members predicted by genomic analysis to be sensitive to the therapeutic (i.e., Clostridium innocuum, Lactobacillus sp.), resistant via putative biotransformation (i.e., Escherichia coli, Klebsiella pneumoniae), or resistant via putative efflux (i.e., Enterococcus faecalis). Bacterial growth was monitored in monocultures by measuring OD600 and standard plate counts, and in mixed cultures by strain-targeted qPCR. Doxorubicin concentration was detected via absorbance assay.
(§3) The effects of Dox on gut-associated bacteria then were investigated in vitro in monoculture and in a synthetic community. […] Bacteria were identified and quantified after culture and treatment using qPCR.
(§4) (See FIGS. 4-8). […] (See FIGS. 4 and 5, respectively).

Data set [5] has as its system Klebsiella pneumoniae. The data set is described as above. It counts as cell-based. To be noted: K. pneumoniae.
Source text: as §2, §3, §4

The test system of data set [6] is Enterococcus faecalis. Described as above. It counts as cell-based. To be noted: E. faecalis.
Source text: as §2, §3, §4

Data set [7] deals with Clostridium innocuum. Kind of data set: Sensitivity of monoculture growth to Dox at various concentrations. It counts as cell-based. To be noted: C. innocuum.
Source text: as §2, §3, §4
(§5) (See FIGS. 7 and 8, respectively).

Data set [8] has as its system Enterococcus faecalis. Kind of data set: Bacterial transformation of Dox, spectrophotometric assay of Dox concentration in culture / spent media. An excerpt: (§6) A spectrophotometric assay to measure the concentration of active, unmodified, non-transformed doxorubicin was adopted.
(§7) A spectrophotometric assay to measure the concentration of doxorubicin was adopted. […] Our spectrophotometric assays measure the concentration of active, unmodified, non-transformed doxorubicin (Dox) via absorption at λ480 versus concentration of Dox μM.

In data set [9] the test system is Escherichia coli. The description is as above.
Source text: as §6, §7
(§8) We next tested the sensitivity or resistance of Escherichia coli, Klebsiella pneumonia, Enterococcus faecalis, Clostridium innocuum or Lactobacillus spp. to Dox at various concentrations. (See FIGS. 4-8). […] (See FIGS. 4 and 5, respectively).

For data set [10], the system named is Klebsiella pneumoniae. The data set is described as above.
Source text: as §6, §7, §8

Data set [11] concerns Lactobacillus. In words: Sensitivity of monoculture growth to Dox at various concentrations. It counts as cell-based, Lactobacillus spp.
Source text: as §2, §3, §4, §5

The test system of data set [12] is synthetic community of C. innocuum, E. coli, E. faecalis, and K. pneumoniae. Kind of data set: Mixed-batch culture of synthetic community treated with Dox in second generation. In kind it is cell-based. The settings on record: Dox 100 μM added in second generation. The protocol: We next performed a mixed-batch culture experiment. (See FIGS. 10A and 10B). We prepared a synthetic community by combining cultures of C. innocuum, E. coli, E. faecalis, and K. pneumoniae. We cultured the synthetic community and allowed community formation in a first generation. Subsequently, we added Dox at a concentration of 100 μM and monitored the growth of the members of the synthetic community after treatment/disturbance in a second generation. We then cultured the synthetic community though resiliency in a third generation.
(See FIGS. 10B, middle panel).

For data set [13], the system named is Lactobacillus. Kind of data set: Growth of Dox-sensitive strain in 50% spent media of resistant strains. In kind it is cell-based, Lactobacillus spp. On the procedure:
as §1

[14] abbreviates: spent media of E. coli and K. pneumoniae, Dox 4.1±2.5 μM and 4.4±0.9.
The mark [15] stands for this setting: spent media of E. faecalis, Dox 48.4±0.8 μM.

Consider gentamicin, for which, in data set [1], the “Effect on K. pneumoniae growth” value is on record as “stalled K. pneumoniae growth”.

Take `COc1cccc2c1C(=O)c1c(O)c3c(c(O)c1C2=O)C[C@@](O)(C(=O)CO)C[C@@H]3O[C@H]1C[C@H](N)[C@H](O)[C@H](C)O1` [Dox, doxorubicin]: the “Growth in 50% spent media” value in data set [2] (setting [14]) is recorded as “able to grow”; in [2] (setting [15]), “unable to grow”; in [13] (setting [14]), “able to grow”; in data set [13] (setting [15]), “unable to grow”. Besides, the “Transformation of Dox by bacterial communities” value in data set [3] (communities containing E. coli and lacking K. pneumoniae (C4)) is recorded as “at a slower rate”; in data set [3] (communities without either K. pneumoniae or E. coli (C5)), “not able to enzymatically transform Dox”. Further, the “Transformation of doxorubicin by bacterial communities” value in [3] (communities containing E. coli or K. pneumoniae) was “rapid transformation”. In addition, the “C. innocuum growth in mixed communities” value in data set [3] (generation 2, medium and high concentrations of doxorubicin) is “not detected in all cultures”. In addition, the “Resistance to Dox” value is on record as “resistant” in [4], “resistant” in data set [5] and “resistant to Dox” in data set [6]. In addition, the “Growth after 25 hours” value in data set [7] (Dox 100 μM) and in data set [11] (Dox 100 μM) was “did not observe any growth” in each case. In addition, the “Dox concentration at which delayed growth was observed” value in [7] (monoculture) and in data set [11] (monoculture) was not above 10 µM in each case. The “Sensitivity to Dox” value in data set [7] (monoculture) and in data set [11] (monoculture) was “highly sensitive” each time. The “Change of Dox concentration in culture” value in data set [8] (E. faecalis culture, absorption at λ480) was “did not reduce the Dox concentration in culture”; in data set [9] (E. coli culture, absorption at λ480), “reduced Dox concentration in culture”; in [10] (K. pneumoniae culture, absorption at λ480) it was “reduced Dox concentration in culture”. Further, the entries for the “Dox concentration in the 50% spent media” value in [8] (E. faecalis grown with initial 100 μM Dox), in [9] (E. coli grown with initial 250 μM Dox) and in data set [10] (K. pneumoniae grown with initial 250 μM Dox) were 48.4±0.8, 4.1 ± 2.5 µM and 4.4±0.9, respectively. Further, the “Growth of Dox-sensitive C. innocuum in synthetic community” value in data set [12] is “grew only following doxorubicin transformation”.
